Measurements from patent publication US20260217701A1, “SELECTIVE BET INHIBITORS AND USES THEREOF” (Tay Therapeutics Limited, priority 2022, published 2026).

System: imiquimod-induced psoriasis
Test: Imiquimod-induced psoriasis model
Assay type: in vivo, mice
Details: for Mean scores of the presence of erythema on the skin of animals at the area of induction of psoriasis / Mean scores of the presence of induration on the skin of animals at the area of induction of psoriasis / Mean scores of the presence of peeling on the skin of animals at the area of induction of psoriasis: mean ± SEM; for Mean PASI Scores in IMI-Psoriasis Model: mice
Method in brief: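 Mice given topical imiquimod (5% cream) daily on depilated backs Days 1–14; Compound A in 5% DMSO/40% PEG-400/55% saline from Day 8, clobetasol topical as reference. Daily PASI (erythema, induration, peeling, each 0–4, summed) Days 8–15; spleen weight, open-field behaviour, serum IL-1B, IL-6, IL-17, TNF-α, IL-22, IL-23 at Day 15.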

[1] = IMI + 10 mg/kg, D8 (before start of treatment)

Compound: Cn1cc(-c2ccccc2)c(-c2cn(C)c(=O)c3[nH]c(-c4cnn(C(F)(F)F)c4)cc23)cc1=O [Compound A, 6-methyl-4-(1-methyl-2-oxo-5-phenyl-1,2-dihydropyridin-4-yl)-2-(1-(trifluoromethyl)-1H-pyrazol-4-yl)-1,6-dihydro-7H-pyrrolo[2,3-c]pyridin-7-one]
- Mean scores of the presence of erythema on the skin of animals at the area of induction of psoriasis (IMI + 3 mg/kg, D15): 0.0 ± 0.0
- Mean scores of the presence of induration on the skin of animals at the area of induction of psoriasis (IMI + 3 mg/kg, D15): 0.1 ± 0.1
- Mean scores of the presence of peeling on the skin of animals at the area of induction of psoriasis (IMI + 3 mg/kg, D15): 0.3 ± 0.2
- Mean scores of the presence of erythema on the skin of animals at the area of induction of psoriasis [1]: 2.3 ± 0.2
- Mean scores of the presence of induration on the skin of animals at the area of induction of psoriasis [1]: 2.6 ± 0.2
- Mean scores of the presence of peeling on the skin of animals at the area of induction of psoriasis [1]: 2.3 ± 0.3
- Mean scores of the presence of erythema on the skin of animals at the area of induction of psoriasis (IMI + 10 mg/kg, D9): 1.2 ± 0.2
- Mean scores of the presence of induration on the skin of animals at the area of induction of psoriasis (IMI + 10 mg/kg, D9): 2.0 ± 0.3
- Mean scores of the presence of peeling on the skin of animals at the area of induction of psoriasis (IMI + 10 mg/kg, D9): 2.0 ± 0.3
- Mean scores of the presence of erythema on the skin of animals at the area of induction of psoriasis (IMI + 10 mg/kg, D10): 1.0 ± 0.2
- Mean scores of the presence of induration on the skin of animals at the area of induction of psoriasis (IMI + 10 mg/kg, D10): 1.8 ± 0.2
- Mean scores of the presence of peeling on the skin of animals at the area of induction of psoriasis (IMI + 10 mg/kg, D10): 1.5 ± 0.2
- Mean scores of the presence of erythema on the skin of animals at the area of induction of psoriasis (IMI + 10 mg/kg, D11): 1.3 ± 0.2
- Mean scores of the presence of induration on the skin of animals at the area of induction of psoriasis (IMI + 10 mg/kg, D11): 1.6 ± 0.2
- Mean scores of the presence of peeling on the skin of animals at the area of induction of psoriasis (IMI + 10 mg/kg, D11): 1.5 ± 0.2
- Mean scores of the presence of erythema on the skin of animals at the area of induction of psoriasis (IMI + 10 mg/kg, D12): 0.5 ± 0.2
- Mean scores of the presence of induration on the skin of animals at the area of induction of psoriasis (IMI + 10 mg/kg, D12): 1.1 ± 0.2
- Mean scores of the presence of peeling on the skin of animals at the area of induction of psoriasis (IMI + 10 mg/kg, D12): 1.3 ± 0.2
- Mean scores of the presence of erythema on the skin of animals at the area of induction of psoriasis (IMI + 10 mg/kg, D13): 0.1 ± 0.1
- Mean scores of the presence of induration on the skin of animals at the area of induction of psoriasis (IMI + 10 mg/kg, D13): 0.8 ± 0.2
- Mean scores of the presence of peeling on the skin of animals at the area of induction of psoriasis (IMI + 10 mg/kg, D13): 0.6 ± 0.2
- Mean scores of the presence of erythema on the skin of animals at the area of induction of psoriasis (IMI + 10 mg/kg, D14): 0.0 ± 0.0
- Mean scores of the presence of induration on the skin of animals at the area of induction of psoriasis (IMI + 10 mg/kg, D14): 0.4 ± 0.2
- Mean scores of the presence of peeling on the skin of animals at the area of induction of psoriasis (IMI + 10 mg/kg, D14): 0.3 ± 0.2
- Mean scores of the presence of erythema on the skin of animals at the area of induction of psoriasis (IMI + 10 mg/kg, D15): 0.0 ± 0.0
- Mean scores of the presence of induration on the skin of animals at the area of induction of psoriasis (IMI + 10 mg/kg, D15): 0.1 ± 0.1
- Mean scores of the presence of peeling on the skin of animals at the area of induction of psoriasis (IMI + 10 mg/kg, D15): 0.3 ± 0.2
- Mean PASI Scores in IMI-Psoriasis Model (IMI + 1 mg/kg, D8 (before start of treatment)): 7.3 ± 0.3
- Mean PASI Scores in IMI-Psoriasis Model (IMI + 1 mg/kg, D9): 7.0 ± 0.4
- Mean PASI Scores in IMI-Psoriasis Model (IMI + 1 mg/kg, D10): 6.0 ± 0.4
- Mean PASI Scores in IMI-Psoriasis Model (IMI + 1 mg/kg, D11): 5.8 ± 0.5
- Mean PASI Scores in IMI-Psoriasis Model (IMI + 1 mg/kg, D12): 4.4 ± 0.3
- Mean PASI Scores in IMI-Psoriasis Model (IMI + 1 mg/kg, D13): 3.1 ± 0.4
- Mean PASI Scores in IMI-Psoriasis Model (IMI + 1 mg/kg, D14): 2.1 ± 0.3
- Mean PASI Scores in IMI-Psoriasis Model (IMI + 1 mg/kg, D15): 1.1 ± 0.2
- Mean PASI Scores in IMI-Psoriasis Model (IMI + 3 mg/kg, D8 (before start of treatment)): 6.9 ± 0.4
- Mean PASI Scores in IMI-Psoriasis Model (IMI + 3 mg/kg, D9): 6.8 ± 0.4
- Mean PASI Scores in IMI-Psoriasis Model (IMI + 3 mg/kg, D10): 5.5 ± 0.3
- Mean PASI Scores in IMI-Psoriasis Model (IMI + 3 mg/kg, D11): 4.0 ± 0.3
- Mean PASI Scores in IMI-Psoriasis Model (IMI + 3 mg/kg, D12): 3.5 ± 0.4
- Mean PASI Scores in IMI-Psoriasis Model (IMI + 3 mg/kg, D13): 1.8 ± 0.3
- Mean PASI Scores in IMI-Psoriasis Model (IMI + 3 mg/kg, D14): 0.8 ± 0.3
- Mean PASI Scores in IMI-Psoriasis Model (IMI + 3 mg/kg, D15): 0.4 ± 0.2
- Mean PASI Scores in IMI-Psoriasis Model [1]: 7.1 ± 0.4
- Mean PASI Scores in IMI-Psoriasis Model (IMI + 10 mg/kg, D9): 5.3 ± 0.6
- Mean PASI Scores in IMI-Psoriasis Model (IMI + 10 mg/kg, D10): 4.3 ± 0.5
- Mean PASI Scores in IMI-Psoriasis Model (IMI + 10 mg/kg, D11): 4.4 ± 0.4
- Mean PASI Scores in IMI-Psoriasis Model (IMI + 10 mg/kg, D12): 2.9 ± 0.5
- Mean PASI Scores in IMI-Psoriasis Model (IMI + 10 mg/kg, D13): 1.5 ± 0.2
- Mean PASI Scores in IMI-Psoriasis Model (IMI + 10 mg/kg, D14): 0.6 ± 0.2
- Mean PASI Scores in IMI-Psoriasis Model (IMI + 10 mg/kg, D15): 0.4 ± 0.2
- body weight change over the last 7 days (mouse, in vivo): weight gains
- erythema, induration and peeling of the skin at the area of induction (mouse, in vivo): significantly reduced
- use of enrichment (nesting) (relative to vehicle-treated psoriasis animals): restored the use of enrichment
- IL-17 level, lower than vehicle (placebo) treated animals (serum, day 15): > 93%
